{"source": "paper PMC13261364", "about": "(International journal of biological macromolecules, 2025)", "molecules": {"B1": {"name": "PaCAγ1, γ-class carbonic anhydrase from Pseudomonas aeruginosa PAO1 (PA5540) (enzyme, UniProt Q9HT34 1-186, looked up)", "chain": "MIRKNPSGDLPVIDESAYVDKTAIICGKVIIQANVFVGPYAVIRADEVDADGGMQPIVIGANSNIQDGVVIHSKSGAAVTIGEHSSIAHRSIVHGPCEVGDRVFIGFNSVLFNCRVGDGCVVRHNAVVDGCDLPAGFYVPSTERIGPRTDLASMPRVSVSASEFSEDVARTNVDLVRGYKSLQNEF", "notes": "PaCAγ1, γ-class carbonic anhydrase encoded by PA5540 of P. aeruginosa PAO1; synthetic gene in pET21d; The initiator methionine is absent in the purified protein by LC-MS; source: E. coli BL21 (DE3), purified (His Trap HP, SEC Superdex 75); not shown: His6, C-terminal, kept"}}, "key": {"Neisseria gonorrhoeae": {"test_system": "Neisseria gonorrhoeae", "design": "method as in PMID 33765392, PMID 34894972", "conditions": "treatment with CA inhibitor; no apparent development of resistance; ref [35],[36]; cited from earlier work"}, "psCA1": {"target": "psCA1", "conditions": "read-out: KI psCA1; 20 °C, 10 mM Tris buffer, 20 mM NaClO4 pH 8.3; ref [52]; cited from earlier work"}, "PaCAγ1 [1]": {"target": "PaCAγ1 (Pseudomonas aeruginosa, UniProt Q9HT34)", "test": "biochemical", "conditions": "Stopped-Flow assay, mean from 3 different assays"}, "hCA I": {"target": "hCA I (Homo sapiens, UniProt P00915)", "sequence (P00915 whole entry)": "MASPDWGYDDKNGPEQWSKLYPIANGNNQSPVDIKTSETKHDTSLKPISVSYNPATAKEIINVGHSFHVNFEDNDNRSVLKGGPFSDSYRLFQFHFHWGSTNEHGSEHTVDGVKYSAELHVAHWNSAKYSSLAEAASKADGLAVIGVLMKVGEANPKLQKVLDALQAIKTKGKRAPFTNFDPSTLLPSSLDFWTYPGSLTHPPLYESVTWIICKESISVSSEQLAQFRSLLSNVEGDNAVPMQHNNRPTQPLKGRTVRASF", "test": "Stopped-flow CO2 hydration inhibition assay, hCA I", "type": "biochemical"}, "PaCAγ1 [2]": {"test_system": "PaCAγ1", "test": "biochemical", "conditions": "Selectivity Index, ratio of KI"}, "hCA II": {"target": "hCA II (Homo sapiens, UniProt P00918)", "test": "Stopped-flow CO2 hydration inhibition assay, hCA II", "type": "biochemical", "conditions": "mean from 3 different assays, errors ±5–10 %"}, "Helicobacter pylori": {"test_system": "Helicobacter pylori", "conditions": "without triggering resistance; ref [37]; cited from earlier work"}, "[3]": {"target": "the molecule itself", "test": "SEC-MALS; SEC-MALS-QELS; 700 μg of purified protein loaded on the SEC s75 column, 20 mM TRIS, 150 mM NaCl, pH 8.5, flow rate 0.5 mL/min"}, "[4]": {"conditions": "Stopped-Flow assay, mean from 3 different assays, errors ±5–10 %, read-out: KI hCA I"}}, "note": "Read-outs that look alike come from different tables or passages of the source.", "data": [{"molecule": "CC(=O)Nc1nnc(S(N)(=O)=O)s1", "note": "[AAZ, acetazolamide]", "values": [{"measurement": "effect on N. gonorrhoeae", "setting": "Neisseria gonorrhoeae", "value": "long-lasting bacteriostatic effects"}]}, {"molecule": "Nc1cccc(S(N)(=O)=O)c1", "note": "[ABS, 3-amino-benzene suldonamide]", "values": [{"measurement": "Ki", "setting": "psCA1", "value": 19, "unit": "nM"}]}, {"molecule": "CCN[C@H]1CN(CCCOC)S(=O)(=O)c2sc(S(N)(=O)=O)cc21", "note": "[BRZ]", "values": [{"measurement": "Ki", "setting": "PaCAγ1 [1]", "value": "307 ± 13.1", "unit": "nM"}]}, {"molecule": "NS(=O)(=O)c1nnc(NS(=O)(=O)c2ccccc2)s1", "note": "[BZA]", "values": [{"measurement": "Ki", "setting": "PaCAγ1 [1]", "value": "290 ± 14.4", "unit": "nM"}]}, {"molecule": "Nc1cccc(S(N)(=O)=O)c1", "note": "[Compound 1]", "values": [{"measurement": "Ki", "setting": "PaCAγ1 [1]", "value": "189 ± 7.11", "unit": "nM"}]}, {"molecule": "Nc1ccc(S(N)(=O)=O)cc1", "note": "[Compound 2]", "values": [{"measurement": "Ki", "setting": "PaCAγ1 [1]", "value": "155 ± 5.23", "unit": "nM"}]}, {"molecule": "NCc1ccc(S(N)(=O)=O)cc1", "note": "[Compound 3]", "values": [{"measurement": "Ki", "setting": "PaCAγ1 [1]", "value": "132 ± 8.86", "unit": "nM"}]}, {"molecule": "NS(=O)(=O)c1cccc(S(N)(=O)=O)c1", "note": "[Compound 5]", "values": [{"measurement": "Ki", "setting": "PaCAγ1 [1]", "value": "561 ± 32.4", "unit": "nM"}, {"measurement": "Ki", "setting": "hCA I; [4]", "value": 25, "unit": "µM"}]}, {"molecule": "Cc1ccc(S(N)(=O)=O)cc1", "note": "[Compound 6]", "values": [{"measurement": "Ki", "setting": "PaCAγ1 [1]", "value": "266 ± 14.2", "unit": "nM"}, {"measurement": "Ki", "setting": "hCA I", "value": 21, "unit": "µM"}]}, {"molecule": "Nc1ccc(S(N)(=O)=O)cc1F", "note": "[Compound 7]", "values": [{"measurement": "Ki", "setting": "PaCAγ1 [1]", "value": "325 ± 13.8", "unit": "nM"}]}, {"molecule": "Nc1ccc(S(N)(=O)=O)cc1Cl", "note": "[Compound 8]", "values": [{"measurement": "Ki", "setting": "PaCAγ1 [1]", "value": "697 ± 44.7", "unit": "nM"}]}, {"molecule": "Nc1ccc(S(N)(=O)=O)cc1Br", "note": "[Compound 9]", "values": [{"measurement": "Ki", "setting": "PaCAγ1 [1]", "value": 3490, "unit": "nM"}]}, {"molecule": "NS(=O)(=O)c1cc(Cl)cc(Cl)c1O", "note": "[Compound 10]", "values": [{"measurement": "Ki", "setting": "PaCAγ1 [1]", "value": 9670, "unit": "nM"}]}, {"molecule": "Nc1cc(C(F)(F)F)c(S(N)(=O)=O)cc1S(N)(=O)=O", "note": "[Compound 11]", "values": [{"measurement": "Ki", "setting": "PaCAγ1 [1]", "value": 3670, "unit": "nM"}]}, {"molecule": "Nc1cc(Cl)c(S(N)(=O)=O)cc1S(N)(=O)=O", "note": "[Compound 12]", "values": [{"measurement": "Ki", "setting": "PaCAγ1 [1]", "value": 6090, "unit": "nM"}]}, {"molecule": "Nc1nnc(S(N)(=O)=O)s1", "note": "[Compound 13]", "values": [{"measurement": "Ki", "setting": "PaCAγ1 [1]", "value": "72.6 ± 3.43", "unit": "nM"}]}, {"molecule": "Cn1nc(S(N)(=O)=O)sc1=N", "note": "[Compound 14]", "values": [{"measurement": "Ki", "setting": "PaCAγ1 [1]", "value": "97.1 ± 5.32", "unit": "nM"}]}, {"molecule": "NS(=O)(=O)c1ccc(O)cc1", "note": "[Compound 15]", "values": [{"measurement": "Ki", "setting": "PaCAγ1 [1]", "value": "209 ± 9.19", "unit": "nM"}]}, {"molecule": "NS(=O)(=O)c1ccc(CO)cc1", "note": "[Compound 16]", "values": [{"measurement": "Ki", "setting": "PaCAγ1 [1]", "value": "533 ± 25.8", "unit": "nM"}]}, {"molecule": "NS(=O)(=O)c1ccc(CCO)cc1", "note": "[Compound 17]", "values": [{"measurement": "Ki", "setting": "PaCAγ1 [1]", "value": "419 ± 17.7", "unit": "nM"}]}, {"molecule": "NS(=O)(=O)c1ccc(C(=O)O)cc1", "note": "[Compound 18]", "values": [{"measurement": "Ki", "setting": "PaCAγ1 [1]", "value": "793 ± 46.2", "unit": "nM"}]}, {"molecule": "Nc1nccc(Nc2ccc(S(N)(=O)=O)cc2)n1", "note": "[Compound 19]", "values": [{"measurement": "Ki", "setting": "PaCAγ1 [1]", "value": 1320, "unit": "nM"}]}, {"molecule": "Nc1ccc(S(=O)(=O)Nc2nnc(S(N)(=O)=O)s2)cc1", "note": "[Compound 20]", "values": [{"measurement": "Ki", "setting": "PaCAγ1 [1]", "value": "244 ± 16.2", "unit": "nM"}]}, {"molecule": "NS(=O)(=O)c1ccc(CCNS(=O)(=O)c2ccc([N+](=O)[O-])cc2CO)cc1", "note": "[Compound 21]", "values": [{"measurement": "Ki", "setting": "PaCAγ1 [1]", "value": "564 ± 32.9", "unit": "nM"}]}, {"molecule": "Nc1ccc(S(=O)(=O)Nc2ccc(S(N)(=O)=O)cc2)cc1", "note": "[Compound 22]", "values": [{"measurement": "Ki", "setting": "PaCAγ1 [1]", "value": "386 ± 19.3", "unit": "nM"}]}, {"molecule": "Nc1ccc(S(=O)(=O)NCc2ccc(S(N)(=O)=O)cc2)cc1", "note": "[Compound 23]", "values": [{"measurement": "Ki", "setting": "PaCAγ1 [1]", "value": "828 ± 51.7", "unit": "nM"}]}, {"molecule": "Nc1ccc(S(=O)(=O)NCCc2ccc(S(N)(=O)=O)cc2)cc1", "note": "[Compound 24]", "values": [{"measurement": "Ki", "setting": "PaCAγ1 [1]", "value": "584 ± 22.2", "unit": "nM"}]}, {"molecule": "NS(=O)(=O)c1cc(Cl)c(Cl)c(S(N)(=O)=O)c1", "note": "[DCP]", "values": [{"measurement": "Ki", "setting": "PaCAγ1 [1]", "value": 5680, "unit": "nM"}]}, {"molecule": "NS(=O)(=O)NCCNc1nonc1/C(=N\\c1ccc(F)c(Br)c1)NO", "note": "[EPC]", "values": [{"measurement": "Ki", "setting": "PaCAγ1 [1]", "value": 5320, "unit": "nM"}, {"measurement": "SI hCA I/PaCAγ1", "setting": "PaCAγ1 [2]", "value": 1.6}, {"measurement": "SI hCA II/PaCAγ1", "setting": "PaCAγ1 [2]", "value": 0.2}, {"measurement": "Ki", "setting": "hCA II", "value": 917, "unit": "nM"}, {"measurement": "Ki", "setting": "hCA I; [4]", "value": 8.26, "unit": "µM"}]}, {"molecule": "CCOc1ccc2nc(S(N)(=O)=O)sc2c1", "note": "[EZA, ethoxzolamide]", "values": [{"measurement": "effect on H. pylori growth", "setting": "Helicobacter pylori", "value": "inhibited bacterial growth"}, {"measurement": "effect on N. gonorrhoeae", "setting": "Neisseria gonorrhoeae", "value": "long-lasting bacteriostatic effects"}]}, {"molecule": "NC(N)=Nc1nc(CSCC/C(N)=N/S(N)(=O)=O)cs1", "note": "[FAM]", "values": [{"measurement": "Ki", "setting": "PaCAγ1 [1]", "value": 2690, "unit": "nM"}, {"measurement": "SI hCA I/PaCAγ1", "setting": "PaCAγ1 [2]", "value": 0.3}, {"measurement": "SI hCA II/PaCAγ1", "setting": "PaCAγ1 [2]", "value": 0.02}, {"measurement": "Ki", "setting": "hCA II", "value": 58, "unit": "nM"}, {"measurement": "Ki", "setting": "hCA I; [4]", "value": 0.922, "unit": "µM"}]}, {"molecule": "NS(=O)(=O)c1cc2c(cc1Cl)NCNS2(=O)=O", "note": "[HTC]", "values": [{"measurement": "Ki", "setting": "PaCAγ1 [1]", "value": 6600, "unit": "nM"}, {"measurement": "SI hCA I/PaCAγ1", "setting": "PaCAγ1 [2]", "value": 0.05}, {"measurement": "SI hCA II/PaCAγ1", "setting": "PaCAγ1 [2]", "value": 0.04}]}, {"molecule": "NS(=O)(=O)c1ccc(S(=O)(=O)Nc2cccc3c(Cl)c[nH]c23)cc1", "note": "[IND]", "values": [{"measurement": "Ki", "setting": "PaCAγ1 [1]", "value": "453 ± 20.1", "unit": "nM"}]}, {"molecule": "CC(=O)/N=c1/sc(S(N)(=O)=O)nn1C", "note": "[MZA]", "values": [{"measurement": "Ki", "setting": "PaCAγ1 [1]", "value": "68.4 ± 2.93", "unit": "nM"}]}, {"molecule": "O=C1NS(=O)(=O)c2ccccc21", "note": "[SAC]", "values": [{"measurement": "Ki", "setting": "PaCAγ1 [1]", "value": 13800, "unit": "nM"}]}, {"molecule": "NS(=O)(=O)c1ccc(N2CCCCS2(=O)=O)cc1", "note": "[SLT]", "values": [{"measurement": "Ki", "setting": "PaCAγ1 [1]", "value": "356 ± 23.8", "unit": "nM"}]}, {"molecule": "CC1(C)O[C@@H]2[C@@H](CO[C@@]3(COS(N)(=O)=O)OC(C)(C)O[C@@H]23)O1", "note": "[TPM]", "values": [{"measurement": "Ki", "setting": "PaCAγ1 [1]", "value": "> 100000", "unit": "nM"}]}, {"molecule": "Cc1onc(-c2ccccc2)c1-c1ccc(S(N)(=O)=O)cc1", "note": "[VLX]", "values": [{"measurement": "Ki", "setting": "PaCAγ1 [1]", "value": "> 100000", "unit": "nM"}]}, {"molecule": "NS(=O)(=O)Cc1noc2ccccc12", "note": "[ZNS]", "values": [{"measurement": "Ki", "setting": "PaCAγ1 [1]", "value": 4170, "unit": "nM"}]}, {"molecule": "B1", "values": [{"measurement": "stoichiometry N", "setting": "[3]", "value": 3}]}]}
